Data: patent US10266577B2, “GLP-1 derivatives, and uses thereof” (Novo Nordisk A/S, priority 2013, dated 2019)
Numbered stars: 1 amine (or outer) side, 2 acyl side, 3 side chain; on linkers, the order of the positions; unused ones are H or OH. Bridge positions count the residues as written; N and C are the ends. Square brackets hold non-standard residues; d marks the D form. Ends that are not written are not given here. I, II: the chains in the order shown. * marks the point of attachment. C18 diacid = O=C(O)CCCCCCCCCCCCCCCCC(=O)*; γGlu = O=C(O)[C@H](CCC(=O)[*:2])N[*:1]; Aib = CC(C)(N)C(=O)O

Key:
[1] = Pharmacokinetic study in minipigs (i.v.); conditions: male, Göttingen, minipig, in vivo, iv, 2 nmol/kg
Protocol: (§1) The purpose of this study is to determine the protraction in vivo of the GLP-1 derivatives after i.v. administration to minipigs, i.e. the prolongation of their time in the body and thereby their time of action. This is done in a pharmacokinetic (PK) study, where the terminal half-life of the derivative in question is determined. By terminal half-life is meant the time it takes to halve a certain plasma concentration in the terminal elimination phase.
(§2) Male Göttingen minipigs were obtained from Ellegaard Göttingen Minipigs (Dalmose, Denmark) approximately 7-14 months of age and weighing approximately 16-35 kg were used in the studies. The minipigs were housed either individually (pigs with permanent catheters) or in a group and fed restrictedly once or twice daily with SDS minipig diet (Special Diets Services, Essex, UK).
(§3) After at least 2 weeks of acclimatisation two permanent central venous catheters were implanted in vena cava caudalis or cranialis in each animal. The animals were allowed 1 week recovery after the surgery, and were then used for repeated pharmacokinetic studies with a suitable wash-out period between successive GLP-1 derivative dosings.
(§4) Blood samples (for example 0.8 ml) were collected in EDTA buffer (8 mM) and then centrifuged at 4° C. and 1942G for 10 minutes.
(§5) Plasma was pipetted into Micronic tubes on dry ice, and kept at −20° C. until analysed for plasma concentration of the respective GLP-1 compound using LOCI. Individual plasma concentration-time profiles were analyzed by a non-compartmental pharmacokinetic method in Phoenix v. 6.2 (Pharsight Inc., Mountain View, Calif., USA), or other relevant software for PK analysis, and the resulting terminal half-lives (harmonic mean) determined.

in vivo = conditions: male, Göttingen, minipig, iv
Protocol: as §1, §2, §3, §4, §5

human GLP-1 receptor [2] = target: T1, human GLP-1 receptor (Homo sapiens, UniProt P43220); assay: GLP-1 receptor binding: competitive binding assay (125I-GLP-1, SPA) on isolated membranes at low and high HSA; conditions: displacement of 125I-GLP-1; for IC50: high serum albumin (2.0% HSA final assay concentration)
T1 construct: expressed in transfected cells; host or cells: BHK cells (parent line BHKTS13), clone FCW467-12A; membrane preparation
T1 sequence (P43220 24-463): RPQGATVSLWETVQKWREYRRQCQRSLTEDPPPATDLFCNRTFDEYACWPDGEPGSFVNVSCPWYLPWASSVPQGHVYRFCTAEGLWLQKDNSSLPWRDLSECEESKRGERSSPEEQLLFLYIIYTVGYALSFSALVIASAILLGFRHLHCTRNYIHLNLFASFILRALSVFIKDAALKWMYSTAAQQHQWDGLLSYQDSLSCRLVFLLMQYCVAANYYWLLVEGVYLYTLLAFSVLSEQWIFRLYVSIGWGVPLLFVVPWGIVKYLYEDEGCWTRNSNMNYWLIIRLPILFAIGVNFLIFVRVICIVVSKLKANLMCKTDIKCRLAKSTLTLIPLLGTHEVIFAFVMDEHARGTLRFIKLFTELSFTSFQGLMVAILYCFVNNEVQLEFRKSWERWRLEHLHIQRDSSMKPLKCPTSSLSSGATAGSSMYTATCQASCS
Protocol: The purpose of this example is to test the receptor binding of the GLP-1 derivatives in vitro. The receptor binding is a measure of affinity of a derivative for the human GLP-1 receptor.
In this type of assay a labelled ligand (in this case ^125I-GLP-1) is bound to the receptor. Each derivative is added in a series of concentrations to isolated membranes containing the human GLP-1 receptor and displacement of the labelled ligand is monitored. The receptor binding is reported as the concentration at which half of the labelled ligand is displaced from the receptor, the IC50 value.
The following chemicals were used in the assay: Human serum albumin (HSA) (Sigma A1653), DMEM w/o phenol red (Gibco 11880-028), Pen/strep (Invitrogen 15140-122), G418 (Invitrogen 10131-027), 1 M Hepes (Gibco 15630), EDTA (Invitrogen 15575-038), PBS (Invitrogen 14190-094), fetal calf serum (Invitrogen 16140-071), EGTA, MgCl2 (Merck 1.05832.1000), Tween 20 (Amresco 0850C335), SPA particles (wheat germ agglutinin (WGA) SPA beads, Perkin Elmer RPNQ0001), [^125I]-GLP-1]-(7-36)NH2 (produced in-house), OptiPlate™-96 (Packard 6005290).
Buffer 1 consisted of 20 mM Na-HEPES plus 10 mM EDTA and pH was adjusted to 7.4. Buffer 2 consisted of 20 mM Na-HEPES plus 0.1 mM EDTA and pH was adjusted to 7.4. Assay buffer consisted of 50 mM HEPES supplemented with 5 mM EGTA, 5 mM MgCl2, 0.005% Tween 20 and pH was adjusted to 7.4. An 8% albumin stock consisted of HSA dissolved at 8% (w/v) in assay buffer. An 0.02% albumin stock consisted of HSA dissolved at 0.02% (w/v) in assay buffer.
The cells express the human GLP-1 receptor.
The cells were grown at 5% CO2 in DMEM, 10% fetal calf serum, 1% Pen/Strep (Penicillin/Streptomycin) and 1.0 mg/ml of the selection marker G418.
To make a membrane preparation the cells were grown to approximately 80% confluence. The cells were washed twice in phosphate-buffered saline and harvested. The cells were pelleted using a brief centrifugation and the cell pellet was kept on ice. The cell pellet was homogenised with ULTRA-THURRAX™ dispersing instrument for 20-30 seconds in a suitable amount of buffer 1 (e.g., 10 ml). The homogenate was centrifuged for 15 minutes. The pellet was re-suspended (homogenised) in 10 ml buffer 2 and centrifuged. This step was repeated once more. The resulting pellet was re-suspended in buffer 2 and the protein concentration was determined. The membranes were aliquoted and stored at minus 80° C.
For the receptor binding assay in the presence of low HSA (0.005%) 50 μl of the assay buffer was added to each well of an assay plate. Assay continued with step 3.
For the receptor binding assay in the presence of high HSA (2%) 50 μl of the 8% albumin stock was added to each well of an assay plate. Assay continued with step 3.
Cell membrane aliquots were thawed and diluted to their working concentration. Fifty μl were added to each well in the assay plate.
WGA SPA beads were suspended in assay buffer at 20 mg/ml. The suspension was diluted to 10 mg/ml in assay buffer just prior to addition to the assay plate. Fifty μl were added to each well in the assay plate.
The incubation was started by adding 25 μl of 480 pM solution of [^125I]-GLP-1]-(7-36)NH2 to each well of the assay plate. A 25 μl aliquot was reserved for measuring total counts/well.
The assay plate was incubated for 2 h at 30° C.
The assay plate was centrifuged for 10 min.
The assay plate was read in a Packard TopCount NXT instrument.
The data from the TopCount instrument were transferred to GraphPad Prism software. The software averaged the values for the replicates and performed a non-linear regression. IC50 values were calculated by the software and reported in nM.

human GLP-1 receptor [3] = target: T1, human GLP-1 receptor; assay: In vitro potency: CRE luciferase reporter gene assay in BHK cells expressing the human GLP-1 receptor; type: cell-based; conditions: whole cell reporter gene assay, BHK clone FCW467-12A/KZ10-1; averages of at least two replicates
Protocol: The purpose of this example is to test the activity, or potency, of the GLP-1 derivatives in vitro. The in vitro potency is the measure of human GLP-1 receptor activation in a whole cell assay.
In vitro potency was determined by measuring the response of the human GLP-1 receptor in a reporter gene assay. The assay was performed in a stably transfected BHK cell line that expresses the human GLP-1 receptor and contains the DNA for the cAMP response element (CRE) coupled to a promoter and the gene for firefly luciferase (CRE luciferase). When the human GLP-1 receptor is activated it results in the production of cAMP, which in turn results in the luciferase protein being expressed. When assay incubation is completed the luciferase substrate (luciferin) is added and the enzyme converts luciferin to oxyluciferin to produce bioluminescence. The luminescence is measured as the readout for the assay.
The cells were cultured at 5% CO2 in Cell Culture Medium. They were aliquoted and stored in liquid nitrogen. Before each assay an aliquot is taken up and washed twice in PBS before being suspended at the desired concentration in the assay specific buffer. For 96-well plates the suspension was made to give a final concentration of 5×10^3 cells/well.
The following chemicals were used in the assay: Pluronic F-68 (10%) (Gibco 2404), human serum albumin (HSA) (Sigma A9511), ovalbumin (Sigma A5503), DMEM w/o phenol red (Gibco 11880-028), 1 M Hepes (Gibco 15630), Glutamax 100× (Gibco 35050) and steadylite plus (PerkinElmer 6016757).
Cell Culture Medium consisted of DMEM medium with 10% FBS (Fetal Bovine Serum; Invitrogen 16140-071), 1 mg/ml G418 (Invitrogen 15140-122), 240 nM MTX (methotrexate; Sigma M9929) and 1% pen/strep (penicillin/streptomycin; Invitrogen 15140-122).
Assay Medium consisted of DMEM w/o phenol red, 10 mM Hepes and 1× Glutamax. The Assay Buffer consisted of 2% ovalbumin and 0.2% Pluronic F-68 in Assay Medium.
1) Cell stocks were thawed in a 37° C. water bath.
2) Cells were washed three times in PBS.
3) The cells were counted and adjusted to 5×10^3 cells/50 μl (1×10^5 cells/ml) in Assay Medium. A 50 μl aliquot of cells was transferred to each well in the assay plate.
4) Stocks of the test compounds and reference compounds were diluted to a concentration of 0.2 pM in Assay Buffer. […] Compounds were tested at the following final concentrations: 1×10^−7 M, 1×10^−8 M; 1×10^−9 M, 1×10^−10 M, 1×10^−11 M, 1×10^−12 M, 1×10^−13 M, and 1×10^−14 M. 6) The assay plate was incubated for 3 h in a 5% CO2 incubator at 37° C. 7) The assay plate was removed from the incubator and allowed to stand at room temperature for 15 min. 8) A 100 μl aliquot of steadylite plus reagent was added to each well of the assay plate (reagent was light sensitive). 9) Each assay plate was covered with aluminum foil to protect it from light and shaken for 30 min at room temperature. 10) Each assay plate was read in a Packard TopCount NXT instrument. Calculations and Results
The data from the TopCount instrument were transferred to GraphPad Prism software. The software performs a non-linear regression (log(agonist) vs response).
A minimum of two replicates was measured for each sample. The reported values are averages of the replicates.

half-life (in vivo) [h] | IC50 (human GLP-1 receptor [2]) [nM] | EC50 (human GLP-1 receptor [3]) [nM] | Low HSA IC50 (human GLP-1 receptor [2]; Low HSA IC50, low serum albumin (max. 0.001% final assay concentration)) [nM] | Molecule | half-life [1] [h]
– | – | – | – | CC[C@H](C)[C@H](NC(=O)[C@H](Cc1ccccc1)NC(=O)[C@H](CCC(=O)O)NC(=O)[C@H](CCCNC(=N)N)NC(=O)[C@H](C)NC(=O)[C@H](C)NC(=O)[C@H](CCC(N)=O)NC(=O)[C@H](CCCCNC(=O)COCCOCCNC(=O)COCCOCCNC(=O)CC[C@H](NC(=O)[C@H]1CC[C@H](CNC(=O)CCCCCCCCCCCCCCCS(=O)(=O)O)CC1)C(=O)O)NC(=O)[C@H](CCC(=O)O)NC(=O)[C@H](CC(C)C)NC(=O)[C@H](Cc1ccc(O)cc1)NC(=O)[C@H](CCCCNC(=O)COCCOCCNC(=O)COCCOCCNC(=O)CC[C@H](NC(=O)[C@H]1CC[C@H](CNC(=O)CCCCCCCCCCCCCCCS(=O)(=O)O)CC1)C(=O)O)NC(=O)[C@H](CO)NC(=O)[C@@H](NC(=O)[C@H](CC(=O)O)NC(=O)[C@H](CO)NC(=O)[C@@H](NC(=O)[C@H](Cc1ccccc1)NC(=O)[C@@H](NC(=O)CNC(=O)[C@H](CCC(=O)O)NC(=O)C(C)(C)NC(=O)[C@@H](N)Cc1c[nH]cn1)[C@@H](C)O)[C@@H](C)O)C(C)C)C(=O)N[C@@H](CCCCNC(=O)COCCOCCNC(=O)COCCOCCNC(=O)CC[C@H](NC(=O)[C@H]1CC[C@H](CNC(=O)CCCCCCCCCCCCCCCS(=O)(=O)O)CC1)C(=O)O)C(=O)N[C@@H](Cc1c[nH]c2ccccc12)C(=O)N[C@@H](CC(C)C)C(=O)N[C@H](C(=O)N[C@@H](CCCNC(=N)N)C(=O)NCC(=O)N[C@@H](CCCNC(=N)N)C(=O)NCC(=O)O)C(C)C [Example 1] | 162
140 | 100 | 0.018 | – | CC[C@H](C)[C@H](NC(=O)[C@H](Cc1ccccc1)NC(=O)[C@H](CCC(=O)O)NC(=O)[C@H](CCCNC(=N)N)NC(=O)[C@H](C)NC(=O)[C@H](C)NC(=O)[C@H](CCC(N)=O)NC(=O)[C@H](CCCCNC(=O)COCCOCCNC(=O)COCCOCCNC(=O)[C@@H](N)CCCCNC(=O)[C@@H](N)CCCCNC(=O)CCCCCCCCCCCCCCCS(=O)(=O)O)NC(=O)[C@H](CCC(=O)O)NC(=O)[C@H](CC(C)C)NC(=O)[C@H](Cc1ccc(O)cc1)NC(=O)[C@H](CCCCNC(=O)COCCOCCNC(=O)COCCOCCNC(=O)[C@@H](N)CCCCNC(=O)[C@@H](N)CCCCNC(=O)CCCCCCCCCCCCCCCS(=O)(=O)O)NC(=O)[C@H](CO)NC(=O)[C@@H](NC(=O)[C@H](CC(=O)O)NC(=O)[C@H](CO)NC(=O)[C@@H](NC(=O)[C@H](Cc1ccccc1)NC(=O)[C@@H](NC(=O)CNC(=O)[C@H](CCC(=O)O)NC(=O)C(C)(C)NC(=O)[C@@H](N)Cc1c[nH]cn1)[C@@H](C)O)[C@@H](C)O)C(C)C)C(=O)N[C@@H](CCCCNC(=O)COCCOCCNC(=O)COCCOCCNC(=O)[C@@H](N)CCCCNC(=O)[C@@H](N)CCCCNC(=O)CCCCCCCCCCCCCCCS(=O)(=O)O)C(=O)N[C@@H](Cc1c[nH]c2ccccc12)C(=O)N[C@@H](CC(C)C)C(=O)N[C@H](C(=O)N[C@@H](CCCNC(=N)N)C(=O)NCC(=O)N[C@@H](CCCNC(=N)N)C(=O)NCC(=O)O)C(C)C [Example 14] | –
– | – | 0.014 | 0.4 | CC[C@H](C)[C@H](NC(=O)[C@H](Cc1ccccc1)NC(=O)[C@H](CCC(=O)O)NC(=O)[C@H](CCCNC(=N)N)NC(=O)[C@H](C)NC(=O)[C@H](C)NC(=O)[C@H](CCC(N)=O)NC(=O)[C@H](CCCCNC(=O)COCCOCCNC(=O)COCCOCCNC(=O)COCCOCCNC(=O)COCCOCCNC(=O)COCCOCCNC(=O)[C@@H](N)CCCCNC(=O)[C@@H](N)CCCCNC(=O)CCCCCCCCCCCCCCCCC(=O)O)NC(=O)[C@H](CCC(=O)O)NC(=O)[C@H](CC(C)C)NC(=O)[C@H](Cc1ccc(O)cc1)NC(=O)[C@H](CCCCNC(=O)COCCOCCNC(=O)COCCOCCNC(=O)COCCOCCNC(=O)COCCOCCNC(=O)COCCOCCNC(=O)[C@@H](N)CCCCNC(=O)[C@@H](N)CCCCNC(=O)CCCCCCCCCCCCCCCCC(=O)O)NC(=O)[C@H](CO)NC(=O)[C@@H](NC(=O)[C@H](CC(=O)O)NC(=O)[C@H](CO)NC(=O)[C@@H](NC(=O)[C@H](Cc1ccccc1)NC(=O)[C@@H](NC(=O)CNC(=O)[C@H](CCC(=O)O)NC(=O)C(C)(C)NC(=O)[C@@H](N)Cc1c[nH]cn1)[C@@H](C)O)[C@@H](C)O)C(C)C)C(=O)N[C@@H](CCCCNC(=O)COCCOCCNC(=O)COCCOCCNC(=O)COCCOCCNC(=O)COCCOCCNC(=O)COCCOCCNC(=O)[C@@H](N)CCCCNC(=O)[C@@H](N)CCCCNC(=O)CCCCCCCCCCCCCCCCC(=O)O)C(=O)N[C@@H](Cc1c[nH]c2ccccc12)C(=O)N[C@@H](CC(C)C)C(=O)N[C@H](C(=O)N[C@@H](CCCNC(=N)N)C(=O)NCC(=O)N[C@@H](CCCNC(=N)N)C(=O)NCC(=O)O)C(C)C [Example 16] | –
– | > 1000 | 0.067 | – | I: H[Aib]EGTFTSDVSKYLEGQAARKFIAWLVRGRK / II: {C18 diacid-γGlu}-SSSSSS / III: {C18 diacid-γGlu}-SSSSSS / IV: {C18 diacid-γGlu}-SSSSSS (amide I:12-III:C, I:21-II:C, I:31-IV:C) [Example 9] | –
